Measured values taken from PubChem BioAssay (NCI).
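GI50 is the concentration that inhibits growth by half. TGI marks complete inhibition of growth.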

Tests used:
Assay in all cases: NCI anticancer screen, dose series, 384-well format
786-0 renal = system: 786-0 renal
A498 renal = system: A498 renal
A549 NSCLC = system: A549 NSCLC
ACHN renal = system: ACHN renal
BT-549 breast = system: BT-549 breast
CAKI-1 renal = system: CAKI-1 renal
CCRF-CEM leukemia = system: CCRF-CEM leukemia
COLO 205 colon = system: COLO 205 colon
DU-145 prostate = system: DU-145 prostate
EKVX NSCLC = system: EKVX NSCLC
HCC-2998 colon = system: HCC-2998 colon
HCT-116 colon = system: HCT-116 colon
HCT-15 colon = system: HCT-15 colon
HL-60(TB) leukemia = system: HL-60(TB) leukemia
HOP-62 NSCLC = system: HOP-62 NSCLC
HOP-92 NSCLC = system: HOP-92 NSCLC
HS 578T breast = system: HS 578T breast
HT29 colon = system: HT29 colon
IGROV1 ovarian = system: IGROV1 ovarian
K-562 leukemia = system: K-562 leukemia
KM12 colon = system: KM12 colon
LOX IMVI melanoma = system: LOX IMVI melanoma
M14 melanoma = system: M14 melanoma
MALME-3M melanoma = system: MALME-3M melanoma
MCF7 breast = system: MCF7 breast
MDA-MB-231 breast = system: MDA-MB-231 breast
MDA-MB-435 melanoma = system: MDA-MB-435 melanoma
MDA-MB-468 breast = system: MDA-MB-468 breast
MOLT-4 leukemia = system: MOLT-4 leukemia
NCI-H226 lung = system: NCI-H226 lung
NCI-H23 lung = system: NCI-H23 lung
NCI-H322M lung = system: NCI-H322M lung
NCI-H460 NSCLC = system: NCI-H460 NSCLC
NCI-H522 lung = system: NCI-H522 lung
NCI/ADR-RES ovarian = system: NCI/ADR-RES ovarian
OVCAR-3 ovarian = system: OVCAR-3 ovarian
OVCAR-4 ovarian = system: OVCAR-4 ovarian
OVCAR-8 ovarian = system: OVCAR-8 ovarian
PC-3 prostate = system: PC-3 prostate
RPMI-8226 leukemia = system: RPMI-8226 leukemia
RXF 393 renal = system: RXF 393 renal
SF-268 CNS = system: SF-268 CNS
SF-295 CNS = system: SF-295 CNS
SF-539 CNS = system: SF-539 CNS
SK-MEL-28 melanoma = system: SK-MEL-28 melanoma
SK-MEL-5 melanoma = system: SK-MEL-5 melanoma
SK-OV-3 ovarian = system: SK-OV-3 ovarian
SN12C renal = system: SN12C renal
SNB-19 CNS = system: SNB-19 CNS
SNB-75 CNS = system: SNB-75 CNS
SR leukemia = system: SR leukemia
SW-620 colon = system: SW-620 colon
T-47D breast = system: T-47D breast
TK-10 renal = system: TK-10 renal
U251 glioblastoma = system: U251 glioblastoma
UACC-257 melanoma = system: UACC-257 melanoma
UACC-62 melanoma = system: UACC-62 melanoma
UO-31 renal = system: UO-31 renal

## N#CC1(c2ccc(NC(=O)c3cccnc3NCc3ccncc3)cc2)CCCC1
786-0 renal
  GI50: 4.39 µM
  TGI: 15.5 µM
A498 renal
  GI50: 7.95 µM
  TGI: 20.5 µM
A549 NSCLC
  GI50: 12.1 µM
  TGI: 25.5 µM
ACHN renal
  GI50: 13.7 µM
  TGI: 36.2 µM
BT-549 breast
  GI50: 8.33 µM
  TGI: 22.9 µM
CAKI-1 renal
  GI50: 11.7 µM
  TGI: 25 µM
CCRF-CEM leukemia
  GI50: 4.22 µM
  TGI: 17.6 µM
COLO 205 colon
  GI50: 13.4 µM
  TGI: 37.6 µM
DU-145 prostate
  GI50: 12.3 µM
  TGI: 33.5 µM
EKVX NSCLC
  GI50: 6.32 µM
  TGI: 25.8 µM
HCC-2998 colon
  GI50: 5.87 µM
  TGI: 17.3 µM
HCT-116 colon
  GI50: 10.6 µM
  TGI: 22.4 µM
HCT-15 colon
  GI50: 3.17 µM
  TGI: 12.5 µM
HL-60(TB) leukemia
  GI50: 2050 nM
  TGI: 3.76 µM
HOP-62 NSCLC
  GI50: 11.2 µM
  TGI: 23.7 µM
HOP-92 NSCLC
  GI50: 10.3 µM
  TGI: 23.8 µM
HS 578T breast
  GI50: 3.38 µM
  TGI: 15.2 µM
HT29 colon
  GI50: 3.99 µM
  TGI: 12.6 µM
IGROV1 ovarian
  GI50: 13.7 µM
  TGI: 31 µM
K-562 leukemia
  GI50: 2880 nM
  TGI: 12.2 µM
KM12 colon
  GI50: 13 µM
  TGI: 26.5 µM
LOX IMVI melanoma
  GI50: 13.3 µM
  TGI: 26.1 µM
M14 melanoma
  GI50: 12.6 µM
  TGI: 30 µM
MALME-3M melanoma
  GI50: 3.09 µM
  TGI: 13.2 µM
MCF7 breast
  GI50: 5.9 µM
  TGI: 21.2 µM
MDA-MB-231 breast
  GI50: 4.96 µM
  TGI: 20.3 µM
MDA-MB-435 melanoma
  GI50: 14.5 µM
  TGI: 28.2 µM
MDA-MB-468 breast
  GI50: 3.62 µM
  TGI: 14.3 µM
MOLT-4 leukemia
  GI50: 4.64 µM
  TGI: 17.3 µM
NCI-H226 lung
  GI50: 11 µM
  TGI: 27.5 µM
NCI-H23 lung
  GI50: 9.55 µM
  TGI: 23.1 µM
NCI-H322M lung
  GI50: 12.2 µM
  TGI: 31.2 µM
NCI-H460 NSCLC
  GI50: 7.74 µM
  TGI: 20.3 µM
NCI-H522 lung
  GI50: 10.5 µM
  TGI: 22.5 µM
NCI/ADR-RES ovarian
  GI50: 11 µM
  TGI: 27.2 µM
OVCAR-3 ovarian
  GI50: 9.01 µM
  TGI: 21.7 µM
OVCAR-4 ovarian
  GI50: 11.7 µM
  TGI: 30.1 µM
OVCAR-8 ovarian
  GI50: 11.1 µM
  TGI: 24.7 µM
PC-3 prostate
  GI50: 9.47 µM
  TGI: 23.1 µM
RPMI-8226 leukemia
  GI50: 1950 nM
  TGI: 5.66 µM
RXF 393 renal
  GI50: 1840 nM
  TGI: 5.83 µM
SF-268 CNS
  GI50: 12.9 µM
  TGI: 27.2 µM
SF-295 CNS
  GI50: 9.76 µM
  TGI: 21.5 µM
SF-539 CNS
  GI50: 4.43 µM
  TGI: 19.2 µM
SK-MEL-28 melanoma
  GI50: 13.8 µM
  TGI: 40.6 µM
SK-MEL-5 melanoma
  GI50: 2820 nM
  TGI: 13 µM
SK-OV-3 ovarian
  GI50: 12.1 µM
  TGI: 24.6 µM
SN12C renal
  GI50: 7.37 µM
  TGI: 25.3 µM
SNB-19 CNS
  GI50: 14.3 µM
  TGI: 28.9 µM
SNB-75 CNS
  GI50: 7.08 µM
  TGI: 20.7 µM
SR leukemia
  GI50: 2450 nM
  TGI: 4.9 µM
SW-620 colon
  GI50: 8.06 µM
  TGI: 20 µM
T-47D breast
  GI50: 2750 nM
  TGI: 14.5 µM
TK-10 renal
  GI50: 11.2 µM
  TGI: 28.8 µM
U251 glioblastoma
  GI50: 12.6 µM
  TGI: 25.1 µM
UACC-257 melanoma
  GI50: 10.4 µM
  TGI: 25.1 µM
UACC-62 melanoma
  GI50: 10.9 µM
  TGI: 22.9 µM
UO-31 renal
  GI50: 12.6 µM
  TGI: 25.2 µM
